The record followed here is patent US6790867B2, “Compositions and method for treating infection in cattle and swine” (Schering-Plough Animal Health Corporation, priority 2002, dated 2004).

Structures are written as SMILES.

The series can be described thus: in vivo. Details: species or system cattle. To be noted: both sexes, bovine, 2.2 mg/kg. The procedure: In a second study, the pharmacokinetic profile of the second active component in Formulation 1A, flunixin, was examined. The pharmacokinetic profile of flunixin was evaluated following administration to cattle as the approved single entity flunixin meglumine product, […], and as the combination product Formulation 1A. This study was conducted in four phases using six cattle (3 males, 3 females). All animals received […] intravenously (IV) in the first phase. This was followed, after a washout period, by the administration of […] intramuscularly (IM) to 3 cows and […] subcutaneously (SQ) to 3 cows. In the next phase the animals were crossed over and received […] or SQ. In the final phase, all six cattle received the flunixin/florfenicol combination product (Formulation 1A). All animals received flunixin at a dose of 2.2 mg/kg, regardless of the formulation or route of administration. Blood samples for determination of flunixin concentration were collected at 0, 0.17, 0.5, 0.75, 1, 2, 3, 4, 6, 8, 12 and 24 hours after dosing. At the final phase of the study, the 6 cattle were given Formulation 1A at a dose of 10 mL per 75 kg SQ (equivalent to 40 mg/kg of florfenicol and 2.2 mg/kg of flunixin). The kinetics of flunixin when administered as Formulation 1A are different from the kinetics of flunixin when administered as […]. As such, the clinical dose response of Formulation 1A were ascertained in a subsequent study (described below).

For the compound `Cc1c(Nc2ncccc2C(=O)O)cccc1C(F)(F)F` [Flunixin, flunixin meglumine], for the setting “im”, the total exposure AUC(0-inf) (usually the area under the concentration-time curve extrapolated to infinity) was 10500 ng·h/mL, the Cmax (commonly the peak of the concentration-time curve) was 3240 ng/mL and the Tmax (usually the time at which the peak concentration occurs) was found to be 30.6 min. Moreover, the AUC(0-inf) (iv) was determined as 13600 ng·h/mL. Further, where the note is “sc”, the AUC(0-inf) was 10900 ng·h/mL, the Cmax was determined as 2860 ng/mL and the time of peak concentration (Tmax) came to 32.4 min.
